Patent US20250144249A1, “METHODS USING SURFACE-EXPRESSIBLE ACTIVATABLE EPITOPES TO LOCALIZE AND/OR TREAT DISEASED CELLS” (EARLI Inc., priority 2022, published 2025)
“Also recorded” adds a separate entry of the source.

Columns and labels:
Format in all cases: cell-based, human
H1299 cells [1] = test: FACS detection of engineered DLL3 on the surface of transfected H1299 cells (Example 4); settings: for expression level of DLL3 on the cell surface / percent positive (DLL3-positive cells): H1299 cells transfected with construct; for expression level of DLL3 on the cell surface: fluorescently labeled anti-DLL3 antibody, FACS, compared to wild-type DLL3 (NP116, NP127)
Text: Each of the six engineered DLL3 constructs ([…]) and two different wild-type DLL3 constructs (NP116 and NP127) was separately introduced to human non-small cell lung carcinoma, H1299 cells (also known as NCI-H1299 or CRL-5803) by transfection to analyze the expression of engineered DLL3. H1299 cells were then stained with fluorescently labeled anti-DLL3 antibodies and analyzed by fluorescence-activated cell sorting (FACS) to detect DLL3 expression. Panels A2-G2 in FIG. 8B, and NP116, NP127, NP244-NP249, and NP268 in FIG. 8C show the amount of DLL3 expressed on the cell surface corresponding to panels A1-G1 in FIG. 8A. […] Specifically, NP249 and NP247 increased percent positive to ˜80% and ˜94%, respectively (FIG. 8C).

H1299 cells [2] = test: in vitro cell killing assay with anti-DLL3-PBD (Example 4); settings: H1299 cells transfected with construct, treated with anti-DLL3-PBD; compared to NP116 or NP127; FIG. 8D
Protocol: Next, in vitro cell killing assay was performed to determine the ability of anti-DLL3 antibodies conjugated with a cytotoxic payload (anti-DLL3-PBD) to induce cytotoxicity. The anti-DLL3-PBD was introduced to H1299 cells transfected with NP247 (G1 in FIG. 8A), NP249 (D1 in FIG. 8A), NP116 (wild-type control), or NP127 (wild-type control).

H1299 cells [3] = test: cell killing assay, CellTiter Glo 2.0 (Example 7); settings: treated with anti-DLL3-PBD, 72 hours, compared to NP116, FIG. 13B
Protocol: Next, H1299 cells stably expressing WT or engineered DLL3 were seeded 5,000 cells/well in 96 well plates. 24 hours after seeding, H1299 cells were treated with a titration of either an unconjugated anti-DLL3 antibody or an anti-DLL3 antibody conjugated to a PBD toxin (anti-DLL3-PBD). 72 hours after antibody treatment, cell viability was assessed using the CellTiter Glo 2.0 assay kit and analyzed on a Promega GloMax Navigator.

H1299 cells [4] = test: number of copies of anti-DLL3 antibody bound to DLL3 on the cell surface (quantification bead standard curve)
Protocol: Next, a physical number of copies of anti-DLL3 antibody bound to DLL3 expressed on the cell surface was assessed. H1299 cells were seeded into 96 well plate. 24 hours after seeding, H1299 cells were transfected with nanoplasmid vectors comprising NP116 (wild-type control), NP247 (with a single DLL3 epitope in the CD8 scaffold), or NP298 (with two DLL3 epitopes in the CD8 scaffold) via lipofectamine according to the manufacture's protocols. H1299 cells were then stained with fluorescently labeled anti-DLL3 antibodies for FACS analysis. Cells and commercially available beads for epitope quantification were then stained with an anti-DLL3 secondary antibody conjugated to Alexa Fluor® 647 (AF647). H1299 cells were subsequently analyzed on a BD Biosciences FACSAria IIu (FIGS. 10A-10C). The number of epitopes were calculated by comparing the cell's expression to the quantification bead standard curve (FIGS. 10B-10C).
Each of NP247 and NP298 constructs and wild-type DLL3 construct (NP116) was separately introduced to H1299 cells by transfection to analyze the expression of engineered DLL3. […] H1299 cells stably expressing wild-type or engineered DLL3 and commercially available beads for epitope quantification were then stained with an anti-DLL3 secondary antibody conjugated to Alexa Fluor® 647 (AF647). H1299 cells were subsequently analyzed on a BD Biosciences FACSAria IIu. […]

## NP246: engineered DLL3 construct, DLL3 residues 27-492, CD8a SP/CD28 transmembrane helix; SEQ ID NO: 36
H1299 cells [1]
  expression level of DLL3 on the cell surface: increased the expression level of DLL3

## NP247: engineered DLL3 construct, DLL3 residues 27-254, CD8a hinge, CD28 transmembrane helix; SEQ ID NO: 37
H1299 cells [1]; FIG. 8C
  percent positive (DLL3-positive cells): ~94%
H1299 cells [1]
  expression level of DLL3 on the cell surface: increased the expression level of DLL3
H1299 cells [1]; compared to DLL3 wild-type or the DLL3 stable cell line, FIG. 8C
  mean fluorescence intensity: significantly higher mean fluorescence intensity
H1299 cells [2]
  loss of viability of cells expressing the construct: substantial loss in viability; also recorded: substantial loss of viability
H1299 cells [3]
  loss of viability / susceptibility to cell death of cells expressing the construct: may be more susceptible to cell death; also recorded: substantial loss of viability
H1299 cells [4]; Example 5, H1299 cells transfected with nanoplasmid vectors, FIG. 10C
  increase in copy number of anti-DLL3 antibodies compared to cells expressing NP116: 13 fold
H1299 cells [4]; Example 7, FIG. 13A
  increase in copy number of anti-DLL3 antibodies compared to cells expressing NP116: 21 fold

B1: NP249: engineered DLL3 construct, DLL3 residues 27-492 with CD73 SP/GPI-anchor motif; SEQ ID NO: 39, 46 (protein)
chain: MCPRAARAPATLLLALGAVLWPAAGAAGVFELQIHSFGPGPGPGAPRSPCSARLPCRLFFRVCLKPGLSEEAAESPCALGAALSARGPVYTEQPGAPAPDLPLPDGLLQVPFRDAWPGTFSFIIETWREELGDQIGGPAWSLLARVAGRRRLAAGGPWARDIQRAGAWELRFSYRARCEPPAVGTACTRLCRPRSAPSRCGPGLRPCAPLEDECEAPLVCRAGCSPEHGFCEQPGECRCLEGWTGPLCTVPVSTSSCLSPRGPSSATTGCLVPGPGPCDGNPCANGGSCSETPRSFECTCPRGFYGLRCEVSGVTCADGPCFNGGLCVGGADPDSAYICHCPPGFQGSNCEKRVDRCSLQPCRNGGLCLDLGHALRCRCRAGFAGPRCEHDLDDCAGRACANGGTCVEGGGAHRCSCALGFGGRDCRERADPCAARPCAHGGRCYAHFSGLVCACAPGYMGARCEFPVHPDGASALPAAPPGLRPGDPQRYLGGSSTGSHCHGSFSLIFLSLWAVIFVLYQ
H1299 cells [1]; FIG. 8C
  percent positive (DLL3-positive cells): ~80%
H1299 cells [1]
  expression level of DLL3 on the cell surface: increased the expression level of DLL3
H1299 cells [2]
  loss of viability of cells expressing the construct: substantial loss in viability; also recorded: substantial loss of viability

B2: NP244: engineered DLL3 construct, DLL3 residues 27-492 with EGFR signal peptide/transmembrane helix; SEQ ID NO: 34 (protein)
chain: MRPSGTAGAALLALLAALCPASRAAGVFELQIHSFGPGPGPGAPRSPCSARLPCRLFFRVCLKPGLSEEAAESPCALGAALSARGPVYTEQPGAPAPDLPLPDGLLQVPFRDAWPGTFSFIIETWREELGDQIGGPAWSLLARVAGRRRLAAGGPWARDIQRAGAWELRFSYRARCEPPAVGTACTRLCRPRSAPSRCGPGLRPCAPLEDECEAPLVCRAGCSPEHGFCEQPGECRCLEGWTGPLCTVPVSTSSCLSPRGPSSATTGCLVPGPGPCDGNPCANGGSCSETPRSFECTCPRGFYGLRCEVSGVTCADGPCFNGGLCVGGADPDSAYICHCPPGFQGSNCEKRVDRCSLQPCRNGGLCLDLGHALRCRCRAGFAGPRCEHDLDDCAGRACANGGTCVEGGGAHRCSCALGFGGRDCRERADPCAARPCAHGGRCYAHFSGLVCACAPGYMGARCEFPVHPDGASALPAAPPGLRPGDPQRYLSIATGMVGALLLLLVVALGIGLFMRRRHIVRKHMGGGSGGGSAYPYDVPDYAAYPYDVPDYA
H1299 cells [1]
  expression level of DLL3 on the cell surface: did not increase the expression level of DLL3

B3: NP245: engineered DLL3 construct, DLL3 residues 27-492 with PD-L1 signal peptide/transmembrane helix; SEQ ID NO: 35 (protein)
chain: MRIFAVFIFMTYWHLLNAAGVFELQIHSFGPGPGPGAPRSPCSARLPCRLFFRVCLKPGLSEEAAESPCALGAALSARGPVYTEQPGAPAPDLPLPDGLLQVPFRDAWPGTFSFIIETWREELGDQIGGPAWSLLARVAGRRRLAAGGPWARDIQRAGAWELRFSYRARCEPPAVGTACTRLCRPRSAPSRCGPGLRPCAPLEDECEAPLVCRAGCSPEHGFCEQPGECRCLEGWTGPLCTVPVSTSSCLSPRGPSSATTGCLVPGPGPCDGNPCANGGSCSETPRSFECTCPRGFYGLRCEVSGVTCADGPCFNGGLCVGGADPDSAYICHCPPGFQGSNCEKRVDRCSLQPCRNGGLCLDLGHALRCRCRAGFAGPRCEHDLDDCAGRACANGGTCVEGGGAHRCSCALGFGGRDCRERADPCAARPCAHGGRCYAHFSGLVCACAPGYMGARCEFPVHPDGASALPAAPPGLRPGDPQRYLLPLAHPPNERTHLVILGAILLCLGVALTFIFRHMGGGSGGGSAYPYDVPDYAAYPYDVPDYA
H1299 cells [1]
  expression level of DLL3 on the cell surface: increased the expression level of DLL3
